*1 amine or outer side, *2 acyl side, *3 side chain or, on linkers, in order; H or OH if unused. Where a SMILES comes first, the peptide text is derived from it. Bridges are numbered along the chain shown (N, C = ends). [ ]: non-standard residue; d: D form. Nle(4-yne,6-yl) = O=C([C@H](CC#CC[*:3])N[*:1])[*:2]

Chain of Bcl-2 protein having His tag on the C terminal side (P10415 whole entry): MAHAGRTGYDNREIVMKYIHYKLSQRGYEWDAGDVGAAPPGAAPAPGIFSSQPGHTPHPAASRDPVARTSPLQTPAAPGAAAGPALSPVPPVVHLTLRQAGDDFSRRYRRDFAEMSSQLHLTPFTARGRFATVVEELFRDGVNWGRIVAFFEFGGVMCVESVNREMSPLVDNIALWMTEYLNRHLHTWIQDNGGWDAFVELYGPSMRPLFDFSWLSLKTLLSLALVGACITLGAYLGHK

The target in the assay is Bcl-2 protein having His tag on the C terminal side (Homo sapiens, UniProt P10415). The assay is described as follows: Binding ability to Bcl-2 by SPR (Surface Plasmon Resonance), dissociation constant. Conditions: His-tagged Bcl-2 immobilized on Ni substrate, solid-phase synthesized peptide, KD from binding and dissociation rates. The procedure:
Next, a crosslinked peptide having the amino acid sequence as shown in the above table was synthesized by using a Fmoc solid-phase method and its binding ability was evaluated by calculating a dissociation constant (KD) in accordance with an evaluation method using SPR (Surface Plasmon Resonance).
Described specifically, first, a solution containing NiCl2 was applied on a substrate to which Ni could be bound and then Bcl-2 protein having His tag on the C terminal side thereof was applied to immobilize the protein on the substrate. Then, a solution containing a solid-phase synthesized peptide was added successively while appropriately changing the concentration. During addition, a change in refractive index depending on the weight on the substrate was read and bond strength was evaluated based on the binding rate and dissociation rate of the peptide calculated.
Turning to `CC(=O)N[C@@H](Cc1ccccc1)C(=O)N[C@@H](CC(C)C)C(=O)N[C@@H](CC(N)=O)C(=O)N[C@@H](CCCNC(=N)N)C(=O)N[C@@H](Cc1c[nH]cn1)C(=O)N[C@@H](CC(N)=O)C(=O)N[C@@H](CC(N)=O)C(=O)N[C@@H](C)C(=O)N[C@@H](Cc1ccc(O)cc1)C(=O)N[C@@H](Cc1ccc(O)cc1)C(=O)N[C@H](C(=O)N[C@H]1CC#CCSC[C@@H](C(=O)N[C@@H](CC(C)C)C(=O)NCC(=O)N[C@@H](CCCNC(=N)N)C(=O)N[C@@H](CC(C)C)C(=O)N[C@@H](Cc2ccc(O)cc2)C(=O)N[C@@H](CCCNC(=N)N)C(=O)N[C@@H](CC(C)C)C(=O)N[C@@H](CC(C)C)C(N)=O)NC(=O)[C@H](C)NC(=O)[C@H](Cc2ccc(O)cc2)NC(=O)CNC1=O)[C@@H](C)O` [A-3] (Ac-FLNRHNNAYYT[Nle(4-yne,6-yl)]GYACLGRLYRLL-NH2; thioether 12-16), the Kd was over 0.1 nM. Under `CC(=O)N[C@@H](Cc1ccccc1)C(=O)N[C@@H](Cc1ccccc1)C(=O)N[C@@H](CC(N)=O)C(=O)N[C@@H](CCCNC(=N)N)C(=O)N[C@@H](Cc1c[nH]cn1)C(=O)N[C@@H](CC(N)=O)C(=O)N[C@@H](CC(N)=O)C(=O)N[C@@H](C)C(=O)N[C@@H](Cc1ccc(O)cc1)C(=O)N[C@@H](Cc1ccc(O)cc1)C(=O)N[C@H](C(=O)N[C@H]1CC#CCSC[C@@H](C(=O)N[C@@H](CC(C)C)C(=O)NCC(=O)N[C@@H](CCCNC(=N)N)C(=O)N[C@@H](CC(C)C)C(=O)N[C@@H](Cc2ccc(O)cc2)C(=O)N[C@@H](CCCNC(=N)N)C(=O)N[C@@H](CC(C)C)C(=O)N[C@@H](CC(C)C)C(N)=O)NC(=O)[C@H](C)NC(=O)[C@H](Cc2ccc(O)cc2)NC(=O)CNC1=O)[C@@H](C)O` [A-4] (Ac-FFNRHNNAYYT[Nle(4-yne,6-yl)]GYACLGRLYRLL-NH2; thioether 12-16) stands over 0.1 nM; under `CC[C@H](C)[C@H](NC(=O)[C@H](Cc1c[nH]cn1)NC(=O)[C@H](CCCNC(=N)N)NC(=O)[C@H](CO)NC(=O)[C@H](C)NC(=O)[C@H](CC(=O)O)NC(=O)[C@H](Cc1ccc(O)cc1)NC(=O)[C@H](CO)NC(=O)[C@H](CC(=O)O)NC(=O)[C@H](C)NC(=O)[C@H](CC(C)C)NC(=O)[C@@H]1CSCC#CC[C@H](NC(=O)[C@@H](NC(=O)[C@@H](NC(=O)[C@H](Cc2ccccc2)NC(C)=O)[C@@H](C)CC)[C@@H](C)CC)C(=O)N[C@@H](CCCNC(=N)N)C(=O)N[C@@H](Cc2ccccc2)C(=O)N[C@@H](CO)C(=O)N1)C(=O)N[C@@H](Cc1ccccc1)C(N)=O` [A-5] (Ac-FII[Nle(4-yne,6-yl)]RFSCLADSYDASRHIF-NH2; thioether 4-8), 0.17 nM; under `CC[C@H](C)[C@@H]1NC(=O)[C@H]([C@@H](C)O)NC(=O)[C@@H](NC(=O)[C@H](Cc2c[nH]cn2)NC(=O)[C@@H]2CCCN2C(=O)[C@H](Cc2ccccc2)NC(C)=O)CC#CCSC[C@@H](C(=O)N[C@@H](CCCNC(=N)N)C(=O)N[C@@H](C)C(=O)N[C@@H](CC(=O)O)C(=O)N[C@@H](CO)C(=O)N[C@@H](Cc2ccc(O)cc2)C(=O)N[C@@H](CC(=O)O)C(=O)N[C@@H](CO)C(=O)N[C@@H](Cc2ccc(O)cc2)C(=O)N[C@H](C(=O)N[C@@H](CCCNC(=N)N)C(=O)N[C@@H](CC(C)C)C(=O)N[C@@H](C)C(=O)N[C@@H](C)C(=O)N[C@H](C(=O)N[C@@H](Cc2ccccc2)C(=O)N[C@@H](CC(C)C)C(N)=O)[C@@H](C)O)C(C)C)NC(=O)[C@H](C)NC1=O` [A-1] (Ac-FPH[Nle(4-yne,6-yl)]TIACRADSYDSYVRLAATFL-NH2; thioether 4-8), 0.37 nM.

For the origin of these results see patent US10435439B2, “Peptide with safer secondary structure, peptide library, and production methods for same” (The University of Tokyo, priority 2010, dated 2019).
